Results taken from publication PMC5919610, “Structural basis of product inhibition by arabinose and xylose of the thermostable GH43 β-1,4-xylosidase from Geobacillus thermoleovorans IT-08” (PLoS ONE, 2018).

Target: T1, Xyl (GH43 β-1,4-xylosidase from Geobacillus thermoleovorans IT-08) (Geobacillus thermoleovorans, UniProt Q2I2N4)
T1 construct: complete Xyl (511 residues; 61,533 Da); E. coli BL21 (DE3), plasmid pET-xyl; one molecule per asymmetric unit, probably dimer in solution (PISA)
T1 sequence (Q2I2N4 1-511): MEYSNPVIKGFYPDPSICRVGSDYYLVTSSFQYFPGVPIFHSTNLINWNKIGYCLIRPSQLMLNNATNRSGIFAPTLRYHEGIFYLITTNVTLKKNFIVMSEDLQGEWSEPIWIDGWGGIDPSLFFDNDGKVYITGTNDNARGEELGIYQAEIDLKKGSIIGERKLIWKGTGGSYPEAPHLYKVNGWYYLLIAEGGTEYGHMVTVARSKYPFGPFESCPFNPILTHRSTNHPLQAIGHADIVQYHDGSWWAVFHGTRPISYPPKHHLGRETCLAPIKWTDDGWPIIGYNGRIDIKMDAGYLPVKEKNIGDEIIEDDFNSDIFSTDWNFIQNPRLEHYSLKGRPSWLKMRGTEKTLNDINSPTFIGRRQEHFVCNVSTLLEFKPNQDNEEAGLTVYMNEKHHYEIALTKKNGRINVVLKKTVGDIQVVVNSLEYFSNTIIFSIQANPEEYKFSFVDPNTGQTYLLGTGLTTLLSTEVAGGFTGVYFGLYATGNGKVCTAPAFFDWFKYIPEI
Test: X-ray crystal structure of soaked crystal
Type: binding
Settings: 500 mM L-arabinose soak, 10 min, pH 7.0, 283 K; 2.10 Å; active site subsite -1; same site in ternary complex with D-xylose (5Z5I, 1.70 Å)

OC[C@@H]1O[C@H](O)[C@H](O)[C@H]1O [L-arabinose]
X-ray crystal structure of soaked crystal: arabinose was only found in subsite -1
